These results are taken from ChEMBL document CHEMBL1201862, “PubChem BioAssay data set” (2004).

Holding throughout (assay): NCI tumour cell line growth inhibition, 48 h
Assay [1] relates to UACC-62.
In assay [2] the test system is NCI-H226.
Assay [3] concerns 786-0.
In assay [4] the test system is IGROV-1.
In assay [5] the test system is M14.
The test system of assay [6] is ACHN.
Assay [7] has as its system SNB-75.
Assay [8] has as its system OVCAR-4.
Assay [9] concerns Malme-3M.
The test system of assay [10] is MOLT-4.
Assay [11] has as its system SF-539.
In assay [12] the test system is HCT-15.
The test system of assay [13] is SF-295.
Assay [14] deals with SR.
Assay [15] relates to NCI-H522.
Assay [16] deals with COLO 205.
Assay [17] concerns MDA-MB-435.
The subject of assay [18] is MDA-MB-231.
Assay [19] relates to NCI/ADR-RES.
Assay [20] has as its system Hs-578T.

Each structure is given as a SMILES string.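 Results reflect a 48-hour exposure of cells in 96-well plates to compound at five concentrations. At the GI50, growth is halved.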 Calls of active or inactive are those of the source. No stated cut-off is given here; in the data, active = GI50 up to about 1.1 µM and inactive = higher. Some results are limits rather than exact numbers.

Regarding `COc1cc2c(c(OC)c1OC)-c1ccc(SC)c(=O)cc1C(CO)C2` (stereo not drawn), the GI50 is 0.0414 µM (active) in assay [1]; 0.279 µM (active) in assay [2]; 0.355 µM (active) in [3]; 0.169 µM (active) in assay [4]; 0.103 µM (active) in assay [5]; 0.513 µM (active) in [6]. The GI50 in assay [7] was 0.0326 µM (active); in assay [8], 0.769 µM (active); in [9], 0.0811 µM (active); in assay [10], 0.596 µM (active); in assay [11], 0.143 µM (active); in [12], 0.227 µM. Further, the GI50 in [13] is 0.175 µM (active); in assay [14], 0.0203 µM (active); in assay [15], 0.0527 µM (active); in [16], 0.166 µM (active).

Turning to `O=CC(O)C(O)C(O)COc1cc(CO)cc2c1C(=O)c1ccccc1C2=O` (stereo not drawn), the GI50 was > 95.1 µM (inactive) in assay [1]; > 100 µM (inactive) in assay [2]; > 100 µM (inactive) in [3]; > 100 µM (inactive) in assay [4]; > 100 µM (inactive) in assay [5]; > 31.6 µM (inactive) in assay [6]. Also, the GI50 was > 100 µM (inactive) in assay [7]; > 94.2 µM (inactive) in [8]; 98.9 µM (inactive) in assay [9]; > 100 µM (inactive) in assay [10]; > 100 µM (inactive) in assay [11]; greater than 100 µM in assay [12]. Besides, the GI50 was > 100 µM (inactive) in assay [13], > 88.3 µM (inactive) in assay [14], > 100 µM (inactive) in assay [15] and > 100 µM (inactive) in [16].

Take `CN(C)C(=N)NC(N)=S`: the GI50 in assay [1], in assay [2], in assay [3], in assay [4], in [5] and in assay [6] was > 100 µM (inactive) throughout. The GI50 is > 100 µM (inactive) in assay [7]; > 100 µM (inactive) in assay [8]; > 100 µM (inactive) in assay [9]; > 100 µM (inactive) in [10]; > 100 µM (inactive) in assay [11]; greater than 100 µM in assay [12]. The GI50 in assay [13], in assay [14], in [15] and in [16] was > 100 µM (inactive) in each case.

As to `COc1ccc(N2C(=O)c3c(c4[nH]c5ccccc5c4c4ccc(C(C)(C)C)cc34)C2=O)cc1`, the GI50 was 20.1 µM (inactive) in assay [1]; 35.8 µM (inactive) in assay [2]; 28.4 µM (inactive) in assay [3]; > 100 µM (inactive) in assay [4]; 40.3 µM (inactive) in [5]; 46.3 µM (inactive) in assay [6]. Further, the GI50 in assay [7] was 16.6 µM (inactive); in assay [8], 20.3 µM (inactive); in assay [9] it was 83 µM (inactive); in [10] it was 21.6 µM (inactive); in assay [11], > 100 µM (inactive); in assay [12] it was 42.8 µM. Moreover, the GI50 in [13] is 31.8 µM (inactive); in assay [14], 21.2 µM (inactive); in [15], 33.2 µM (inactive); in [16] it was 37.3 µM (inactive).

Turning to `COc1ccccc1C1CC(=O)CC(c2ccccc2OC)C12C(=O)NC(=S)NC2=O` (stereo not drawn), the GI50 in [1] is > 100 µM (inactive); in [17] it was 25.4 µM (inactive); in assay [2], > 100 µM (inactive); in assay [3], > 100 µM (inactive); in assay [4], 68.9 µM (inactive); in [18], 38.4 µM (inactive). Moreover, the GI50 in assay [5] was 88.3 µM (inactive); in [6] it was 28.2 µM (inactive); in assay [7] it was 56 µM (inactive); in assay [8], 99.8 µM (inactive); in [9], 79.6 µM (inactive); in assay [10], 35.7 µM (inactive). The GI50 in assay [11] was 81.8 µM (inactive); in assay [12], 42.5 µM; in assay [13], > 100 µM (inactive); in assay [19], > 100 µM (inactive); in [14] it was 53.7 µM (inactive); in assay [15] it was 51.3 µM (inactive). In addition, the GI50 in [16] was 32.6 µM (inactive).

On to `CC(=O)c1cccc(NC(=O)C(=O)NNc2nnc(S)n2N)c1`, for which the GI50 in assay [1] is 1.89 µM (inactive); in [2] it was 12.2 µM (inactive); in [3] it was 11.3 µM (inactive); in [4] it was 8.61 µM (inactive); in [5], 1.89 µM (inactive); in assay [6], 7.33 µM (inactive). The GI50 in assay [7] was 7.29 µM (inactive); in assay [8] it was 10.1 µM (inactive); in assay [9], 1.93 µM (inactive); in assay [10] it was 3.6 µM (inactive); in [11] it was 6.18 µM (inactive); in assay [12] it was 4.9 µM. For the same compound, the GI50 in assay [13] is 4.14 µM (inactive); in assay [20], 2 µM (inactive); in [14], 3.61 µM (inactive); in [15], 6.37 µM (inactive); in assay [16], 14.2 µM (inactive).

As to `COc1cc2c(cc1OC)C1=Cc3cc(OC)c(OC)cc3C(C)N1C=C2` (stereo not drawn), the GI50 in assay [1] was 75.7 µM (inactive); in assay [17], 41.8 µM (inactive); in assay [2], > 100 µM (inactive); in assay [3] it was > 100 µM (inactive); in assay [4], > 100 µM (inactive); in assay [5] it was > 100 µM (inactive). Further, the GI50 in [6] was > 100 µM (inactive); in assay [7], 40 µM (inactive); in assay [9], > 100 µM (inactive); in assay [10], 35.2 µM (inactive); in assay [11] it was > 100 µM (inactive); in assay [12], 69.7 µM. The GI50 is > 100 µM (inactive) in [13], 74 µM (inactive) in [20], > 100 µM (inactive) in assay [19] and 22 µM (inactive) in assay [16].

Take `CC(C)(C)OC/C=C(\Br)CO`: the GI50 in assay [1], in assay [17], in assay [2], in assay [3], in [18] and in assay [5] was > 100 µM (inactive) each time. Besides, the GI50 in [6], in [7], in [8], in [9], in [10] and in assay [11] was > 100 µM (inactive) in each case. Also, the GI50 in [12] was greater than 100 µM; in [13] it was > 100 µM (inactive); in assay [19] it was > 100 µM (inactive); in assay [16] it was > 100 µM (inactive).

Take `CCCCCC(/C=C/C1CCC(=O)C1)OCOCCOC` (stereo not drawn): the GI50 in assay [1] is 36.6 µM (inactive); in [17], 33.2 µM (inactive); in [2], 29.1 µM (inactive); in [3] it was 19.3 µM (inactive); in assay [4], 42.2 µM (inactive); in assay [18], 69.8 µM (inactive). The GI50 was 34 µM (inactive) in [5]; 22.3 µM (inactive) in [6]; 11.5 µM (inactive) in assay [7]; 47.9 µM (inactive) in assay [8]; > 78.9 µM (inactive) in assay [9]; 15.8 µM (inactive) in assay [10]. Besides, the GI50 is 19.8 µM (inactive) in assay [11]; 31.1 µM in [12]; > 58.7 µM (inactive) in assay [13]; 30 µM (inactive) in [19]; > 46.3 µM (inactive) in assay [14]; 17.1 µM (inactive) in assay [15]. In addition, the GI50 in assay [16] is 48.8 µM (inactive).

With `CN(C)CCCNC(=O)c1cc(NC(=O)c2cc(NC(=O)[C@@H]3C[C@H]3C(=O)Nc3cc(C(=O)Nc4cc(C(=O)NCCCN(C)C)n(C)c4)n(C)c3)cn2C)cn1C`, the GI50 in [17], in [2], in assay [3], in assay [4], in assay [18] and in assay [5] was > 100 µM (inactive) throughout. In addition, the GI50 in assay [6], in assay [7], in assay [8], in assay [9], in assay [10] and in [11] was > 100 µM (inactive) in each case. The GI50 in assay [13], in assay [19], in [14], in [15] and in assay [16] was > 100 µM (inactive) in each case.

Regarding `C=CCOC1=C2CC[C@H](O)[C@@]2(C)CCC1=O`, the GI50 in assay [1], in [2], in assay [3], in [4], in assay [5] and in [6] was > 100 µM (inactive) throughout. For the same compound, the GI50 is > 100 µM (inactive) in assay [7]; > 100 µM (inactive) in [8]; > 100 µM (inactive) in [9]; > 100 µM (inactive) in [10]; > 100 µM (inactive) in [11]; greater than 100 µM in assay [12]. The GI50 in assay [13], in assay [14], in assay [15] and in assay [16] was > 100 µM (inactive) throughout.

For the compound `CC1(C)[C@@H]2C[C@H]1c1cnc(-c3ccccn3)cc1C2CCCCC[C@@H]1c2cc(-c3ccccn3)ncc2[C@@H]2C[C@H]1C2(C)C` (stereo partly drawn), the GI50 in assay [1] was 0.946 µM (active); in assay [17], 1.38 µM (inactive); in assay [2], 1.23 µM (inactive); in assay [3] it was 0.493 µM (active); in [4], 1.63 µM (inactive); in assay [18], 8.15 µM (inactive). The GI50 in [5] was 1.61 µM (inactive); in assay [6], 1.82 µM (inactive); in assay [7], 0.74 µM (active); in assay [8] it was 0.384 µM (active); in assay [9], 3.19 µM (inactive); in assay [10], 0.357 µM (active). In addition, the GI50 is 0.199 µM (active) in assay [11]; 5.9 µM in [12]; 0.871 µM (active) in assay [13]; 25.6 µM (inactive) in [19]; 0.653 µM (active) in assay [14]; 1.71 µM (inactive) in assay [15]. Also, the GI50 in assay [16] is 0.578 µM (active).
